Tests used:
Cdc7/ASK [1] = target: T1, Cdc7/ASK (Homo sapiens, UniProt O00311); assay: Cdc7 Biochemical Assay Method 2: 384 well mobility shift assay (EZ Reader II), MCM2 peptide substrate; design: purchased; conditions: 12.5 μM ATP, read-out: Biochemical Method 2 (pIC50) (converted)
Description: This protocol describes a method for assaying Cdc7/ASK for activity. The assay is a 384 well mobility shift assay (MSA) run on the EZ Reader II microfluidics plate reader (Caliper LifeSciences), utilising a peptide substrate based on the MCM2 sequence. The assay technology is based on the change in mobility between the peptide substrate and the phosphorylated product. A 10 nL volume of the reaction mixture is sipped onto the microfluidic chip where the substrate and product are separated by electrophoresis and detected via laser-induced fluorescence (488 nm LED). The reaction can be monitored in real-time for kinetic experiments or as an end-point for IC50 determinations. The % conversion of substrate is calculated from peak heights of product (P) and substrate (S) peptides (% conversion=P/(P+S)*100).
• 10× Assay Buffer: 200 mM HEPES pH 8, 100 mM MgCl2, 0.1% v/v Triton X-100 and 15 mM DTT. Prepare fresh buffer from 1 M HEPES pH 8, 1 M MgCl2, 1 M DTT and 10% Triton x-100 stocks for each experiment. • Cdc7/ASK is purchased from commercial suppliers and used in the assay at a final assay concentration of 0.847 ng/μL or 9.2 nM. • MCM2 peptide is purchased from commercial suppliers and used in the assay at a final assay concentration of 2.5 μM. • ATP used in the assay at a final assay concentration of 12.5 μM. Methods • 1. Prepare intermediate (daughter) compound plate by transferring 2 μL of compound from the mother plate to 18 μL of 33.3% DMSO in a clear polypropylene plate. • 2. Dry-spot 1 μL of compound from the intermediate compound plate to empty assay plate. • 3. Add 5 μL of 1.694 ng/μL CDC7/ASK working solution to ‘test’ and ‘control’ wells or […] of 2× Assay Buffer to ‘blank’ wells. • 4. Add 4 μL 2.5 μM peptide/12.5 μM ATP working solution to all wells. • 5. Incubate at 37° C. for 1 hour then remove from the incubator and leave for a further 1 hour at room temperature. • 6. Place plate into an EZReader II to read.
Percentage inhibition values were calculated from % of substrate conversion values, using the no compound (DMSO) and no enzyme control values as 0% and 100% inhibition, respectively. IC50 determination was performed with ExcelFit software (IDBS) using curve fit 205. Z′ factors were determined for each plate tested and were all above 0.5.

[2] = test system: Cdc7 (pS53MCM2 levels in HCT116 cells); assay: Cdc7 Cell Pharmacodynamics Assay Method 1: pS53MCM2 levels in HCT116 cells, 6 hours; assay type: cell-based; conditions: Homo sapiens, HCT-116, 6 h, read-out: Biomarker Method 1 (pEC50) (converted)
Source text: This protocol describes a method to investigate the inhibition of Cdc7 activity of compounds by measuring pS53MCM2 levels in cells after treatment.
• HCT116 cells (wild type P53 positive) • McCoys 5A media (PAA Laboratories Ltd, E15-022) • 10% FCS (Sera Laboratories International Ltd, EU000F Batch:108005) • 100× L-Glutamine (Invitrogen, 25030-024) • D-PBS without CaCl2 and MgCl2 (Invitrogen, ref 14190-094) • Trypsin/EDTA (Invitrogen 25300-054) • 2% BSA in PBS • Cell Extraction Buffer (Invitrogen FNN0011) • Protease inhibitor cocktail (Sigma P-2714) • PMSF 0.3M stock in DMSO (Sigma P7626) • Antibody-rabbit pMCM2 Ser53 (Bethyl #A300-756A) • Antibody-goat MCM2 (Bethyl #A300-122A) • Antibody-goat Anti Rabbit IgG HRP (Perbio Science UK Ltd 31462) • 1×PBS • FACE Wash buffer (0.02% Triton X100 in 1×PBS) • SuperSignal ELISA Pico Chemiluminescent Substrate (Perbio Science UK Ltd 37070) Method • 72 hours prior to the start of the experiment plate 1×10^6 HCT 116 cells in a 150 cm^2 flask in complete McCoys 5A media (+10% FCS+1× L-glutamine). • Plate 20,000 HCT116 cells per well in standard TC treated 96 well plate in 100 μL complete McCoys 5A media. • Allow cells to settle overnight in incubator set at 37° C. and 5% CO2. • Remove intermediate plate from fridge and place at 37° C. overnight to allow to equilibrate. • Cell treatment: cell assay plate 100 μL; daughter to cell transfer volume 3.33 μL; daughter volume 45 μL; mother plate to daughter volume 5 μL. • Once all cells are treated remove the cells to the incubator and incubate for 6 hours. • Dilute the capture antibody (total MCM2#A300-122A) 1 in 250 in the required volume of PBS (5 mL per assay plate) and add 50 μL to each well of a Hybond plate excluding wells 12E to 12H. In these wells add 50 μL PBS. Seal the plate and incubate at room temperature for a minimum of 2 hours. • Defrost aliquot of Invitrogen Cell Extraction Buffer (FNN0011) on ice and supplement with appropriate volume of both Sigma protease inhibitor cocktail (P-2714) and PMSF (final conc 1 mM from a 1 M stock in DMSO). • After the 6 hour cell treatment time tap out the media from the assay plates and place them in the −70° C. freezer for at least 5 minutes. • Remove plates from freezer and add 20 μL of ice cold complete lysis buffer on ice. Incubate cells for 30 minutes at 4° C. • Add 80 μL per well 2% BSA. • Transfer 80 μL from the lysis plate to the same wells in the capture/ELISA plate. Cover with plate seal and incubate plates overnight at 4° C. • Wash plates with PBS, remove any residual remaining liquid and add 50 μL per well of pMCM2 Ser53 antibody (#A300-756A) diluted 1 in 100 in 2% BSA. Cover plate and incubate at room temperature for 2 hours with gentle shaking. • Wash plates with PBS, remove any residual remaining liquid and Incubate with 50 μL goat anti rabbit antibody (1 in 800 dilution in 2% BSA) for 1 hour at room temperature. • Wash plates with PBS, remove any residual remaining liquid and add 50 μL mixed SuperSignal Pico substrate. • Incubate each plate for 5 minutes at room temperature shielding the plates from direct light (with a cover plate). Read plates with the luminescent detection. Method 2A and 2B

Cdc7/Dbf4 = Cdc7/Dbf4 (Homo sapiens, UniProt O00311); assay: Cdc7 Biochemical Assay Method 3: Cdc7/Dbf4 Enzyme TR-FRET Assay measuring pS40MCM2; conditions: 1 μM ATP, read-out: Biochemical Method 3 (pIC50) (converted)
Chain of Cdc7/Dbf4 (O00311 whole entry): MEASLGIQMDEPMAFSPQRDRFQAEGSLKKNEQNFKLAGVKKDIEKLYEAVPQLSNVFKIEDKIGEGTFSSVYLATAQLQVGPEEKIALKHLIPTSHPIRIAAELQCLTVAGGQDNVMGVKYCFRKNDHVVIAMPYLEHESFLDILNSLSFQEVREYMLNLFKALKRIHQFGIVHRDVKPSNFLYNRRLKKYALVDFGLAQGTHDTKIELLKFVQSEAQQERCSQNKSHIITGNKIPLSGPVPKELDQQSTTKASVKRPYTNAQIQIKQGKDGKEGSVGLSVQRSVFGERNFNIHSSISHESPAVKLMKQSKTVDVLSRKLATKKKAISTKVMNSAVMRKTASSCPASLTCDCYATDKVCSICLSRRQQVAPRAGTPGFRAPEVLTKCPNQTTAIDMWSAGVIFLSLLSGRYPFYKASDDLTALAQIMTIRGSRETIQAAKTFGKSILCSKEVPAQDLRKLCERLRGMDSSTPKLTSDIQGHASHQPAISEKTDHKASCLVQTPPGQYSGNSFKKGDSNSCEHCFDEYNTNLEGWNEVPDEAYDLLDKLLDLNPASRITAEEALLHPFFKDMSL
Chain of Cdc7/Dbf4 (Q9UBU7 whole entry partner): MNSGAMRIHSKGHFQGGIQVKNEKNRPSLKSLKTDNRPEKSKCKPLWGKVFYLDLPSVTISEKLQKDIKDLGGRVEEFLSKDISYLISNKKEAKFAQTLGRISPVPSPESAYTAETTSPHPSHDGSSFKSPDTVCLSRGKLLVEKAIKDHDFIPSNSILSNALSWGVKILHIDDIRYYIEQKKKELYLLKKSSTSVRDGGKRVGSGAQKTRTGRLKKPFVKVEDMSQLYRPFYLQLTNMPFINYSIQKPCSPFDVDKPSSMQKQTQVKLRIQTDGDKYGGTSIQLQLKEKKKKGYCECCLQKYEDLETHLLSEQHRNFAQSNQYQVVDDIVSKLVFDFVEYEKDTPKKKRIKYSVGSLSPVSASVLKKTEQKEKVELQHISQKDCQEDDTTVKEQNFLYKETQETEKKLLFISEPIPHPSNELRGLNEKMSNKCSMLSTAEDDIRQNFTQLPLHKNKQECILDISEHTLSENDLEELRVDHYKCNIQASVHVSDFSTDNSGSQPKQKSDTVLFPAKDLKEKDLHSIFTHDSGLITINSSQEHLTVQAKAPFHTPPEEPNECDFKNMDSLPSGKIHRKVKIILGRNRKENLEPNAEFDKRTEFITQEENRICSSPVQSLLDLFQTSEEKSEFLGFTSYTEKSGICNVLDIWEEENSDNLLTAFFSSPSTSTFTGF
Procedure, shortened: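 TR-FRET read-out (terbium anti-rabbit donor, streptavidin-Alexa Fluor488 acceptor, anti-Mcm2 pS40 antibody) of peptide phosphorylation after 120 min at 25° C; reaction held 1 μM ATP, 100 nM biotin-tagged peptide substrate and 2.5 nM enzyme complex.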

Cdc7/ASK [3] = target: T1, Cdc7/ASK; assay: Cdc7 Biochemical Assay Method 1: 384 well ELISA, whole protein substrate MCM2, antibody against Phospho MCM2 (S53); design: purchased; conditions: 2 μM ATP, read-out: Biochemical Method 1 (pIC50) (converted)
Procedure, shortened: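 MCM2 protein substrate was coated on nickel-chelate plates, then Cdc7/ASK was added with 2 μM ATP in 50 mM Tris-HCl pH 8.5, 10 mM MgCl2, 1 mM DTT, 4% DMSO, 90 min at room temperature. Phospho-MCM2 (S53) was detected by ELISA with an AP secondary and PNPP absorbance. IC50 was derived from % inhibition versus no-compound and no-enzyme controls.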

T1 sequence (O00311 whole entry): as the sequence (O00311 whole entry) above
T1 sequence (Q9UBU7 whole entry partner): as the sequence (Q9UBU7 whole entry partner) above

With O=c1[nH]c(-c2ccncc2)nc(N2CCNCC2c2ccccc2)c1Cl (stereo not shown) [Compound 372] the IC50 (Cdc7/ASK [1]) was 263 nM.

With NC1CCN(c2nc(-c3ccnc(F)c3)[nH]c(=O)c2Cl)CC1 [Compound 321] the IC50 (Cdc7/ASK [1]) was 2.29 nM and the EC50 [2] was 457 nM.

In the case of CCCC1COCCN1c1nc(-c2ccncc2)[nH]c(=O)c1Cl (stereo not shown) [Compound 366], the IC50 (Cdc7/ASK [1]) is reported as 60.3 nM.

CC[C@H]1CNCCN1c1nc(-c2ccncc2)[nH]c(=O)c1Cl [Compound 369] gave an IC50 (Cdc7/ASK [1]) of 5.5 nM and an EC50 [2] of 891 nM.

In the case of C[C@H]1COCCN1c1nc(-c2ccncc2)[nH]c(=O)c1Cl [Compound 365], the IC50 (Cdc7/ASK [1]) is reported as 7.08 nM and the EC50 [2] is reported as 263 nM.

Molecule CC(C)C[C@H]1CN2CCC[C@H]2CN1c1nc(-c2ccncc2)[nH]c(=O)c1Cl [Compound 184] has an IC50 (Cdc7/Dbf4) of 102 nM, an IC50 (Cdc7/ASK [3]) of 437 nM and an IC50 (Cdc7/ASK [1]) of 170 nM.

In the case of CC[C@@H]1CNCCN1c1nc(-c2ccncc2)[nH]c(=O)c1Cl [Compound 371], the IC50 (Cdc7/ASK [1]) is reported as 3.09 nM and the EC50 [2] is reported as 245 nM.

CC(C)CC1COCCN1c1nc(-c2ccncc2)[nH]c(=O)c1Cl (stereo not shown) [Compound 367] was tested, and the IC50 (Cdc7/ASK [1]) was 295 nM.

CC(C)[C@H]1CNCCN1c1nc(-c2ccncc2)[nH]c(=O)c1Cl [Compound 370] gave an IC50 (Cdc7/ASK [1]) of 12 nM and an EC50 [2] of 1020 nM.

For NC[C@@H]1CCN(c2nc(-c3ccnc(F)c3)[nH]c(=O)c2Cl)C1 [Compound 318], the IC50 (Cdc7/ASK [1]) was 14.1 nM.

CC(C)(C)[C@H]1CN(c2nc(-c3ccncc3)[nH]c(=O)c2Br)CCN1 [Compound 410, 5-bromo-4-[(3S)-3-tert-butylpiperazin-1-yl]-2-(4-pyridyl)-1H-pyrimidin-6-one] gave an IC50 (Cdc7/ASK [1]) of 9.12 nM and an EC50 [2] of 269 nM.

For CC(F)(F)[C@H]1CN(c2nc(-c3ccncc3)[nH]c(=O)c2Cl)CCN1 [Compound 307], the IC50 (Cdc7/ASK [3]) was 3.63 nM and the IC50 (Cdc7/ASK [1]) was 2.29 nM.

CC(C)(C)[C@H]1CN(c2nc(-c3ccnc(F)c3)[nH]c(=O)c2Cl)CCN1 [Compound 322] was tested, and the IC50 (Cdc7/ASK [1]) was 1.38 nM and the EC50 [2] was 42.7 nM.

With CC(C)[C@H]1CN(c2nc(-c3ccncc3)[nH]c(=O)c2Br)CCN1 [Compound 408, 5-bromo-4-[(3S)-3-isopropylpiperazin-1-yl]-2-(4-pyridyl)-1H-pyrimidin-6-one] the IC50 (Cdc7/ASK [1]) was 5.25 nM and the EC50 [2] was 257 nM.

For CC(C)[C@H]1CN(c2nc(-c3ccncc3)[nH]c(=O)c2C#N)CCN1 [Compound 409, 4-[(3S)-3-isopropylpiperazin-1-yl]-6-oxo-2-(4-pyridyl)-1H-pyrimidine-5-carbonitrile], the IC50 (Cdc7/ASK [1]) was 11.5 nM.

In the case of CC(C)(C)[C@H]1CN(c2nc(-c3ccncc3)[nH]c(=O)c2C#N)CCN1 [Compound 411, 4-[(3S)-3-tert-butylpiperazin-1-yl]-6-oxo-2-(4-pyridyl)-1H-pyrimidine-5-carbonitrile], the IC50 (Cdc7/ASK [1]) is reported as 10.5 nM.

Work on CC(F)(F)[C@H]1CN(c2nc(-c3ccnc(F)c3)[nH]c(=O)c2Cl)CCN1 [Compound 315] yielded an IC50 (Cdc7/ASK [1]) of 1.51 nM and an EC50 [2] of 63.1 nM.

CC1CNCCN1c1nc(-c2ccncc2)[nH]c(=O)c1Cl (stereo not shown) [Compound 368] gave an IC50 (Cdc7/ASK [1]) of 0.603 nM and an EC50 [2] of 15.5 nM.
